Source: ChEMBL document CHEMBL3425423, “Hydroxy tricyclic 1,5-naphthyridinone oxabicyclooctane-linked novel bacterial topoisomerase inhibitors as broad-spectrum antibacterial agents-SAR of RHS moiety (Part-3)” (Bioorg Med Chem Lett, 2015)
≈ marks a conversion by molar mass, not a printed value.

Experiments:
Staphylococcus aureus [1] = assay: Antibacterial activity against Staphylococcus aureus Smith; type: functional
Streptococcus pneumoniae = assay: Antibacterial activity against Streptococcus pneumoniae IID554; type: functional
Enterococcus faecalis = assay: Antibacterial activity against Enterococcus faecalis ATCC 29212; type: functional
Escherichia coli = assay: Antibacterial activity against Escherichia coli ATCC 25922; type: functional
Acinetobacter baumannii = assay: Antibacterial activity against Acinetobacter baumannii IID876; type: functional
Pseudomonas aeruginosa = assay: Antibacterial activity against Pseudomonas aeruginosa PAO1; type: functional
Haemophilus influenzae = assay: Antibacterial activity against Haemophilus influenzae ATCC 49247; type: functional
Moraxella catarrhalis = assay: Antibacterial activity against Moraxella catarrhalis ATCC 25238; type: functional
[2] = biological target: T1, Voltage-gated inwardly rectifying potassium channel KCNH2 (Homo sapiens, UniProt Q12809); assay: Inhibition of human ERG expressed in CHO cells measured over 5 mins by patch clamp assay
Staphylococcus aureus [3] = assay: Ratio of MIC for quinolone-resistant Staphylococcus aureus MS5935 to MIC for quinolone-sensitive Staphylococcus aureus; type: functional
Enterococcus faecium = assay: Antibacterial activity against VanA-type vancomycin-resistant Enterococcus faecium A2373; type: functional
[4] = biological target: T1, Voltage-gated inwardly rectifying potassium channel KCNH2; assay: Displacement of MK499 from human ERG
[5] = Staphylococcus aureus, Smith, read-out: MIC
[6] = Streptococcus pneumoniae, IID554, read-out: MIC
[7] = Enterococcus faecalis, ATCC 29212, read-out: MIC
[8] = Escherichia coli, ATCC 25922, read-out: MIC
[9] = Acinetobacter baumannii, IID876, read-out: MIC
[10] = Pseudomonas aeruginosa, PAO1, read-out: MIC
[11] = Haemophilus influenzae, ATCC 49247, read-out: MIC
[12] = Moraxella catarrhalis, ATCC 25238, read-out: MIC
[13] = Enterococcus faecium, A2373, read-out: MIC

T1 sequence (Q12809 whole entry): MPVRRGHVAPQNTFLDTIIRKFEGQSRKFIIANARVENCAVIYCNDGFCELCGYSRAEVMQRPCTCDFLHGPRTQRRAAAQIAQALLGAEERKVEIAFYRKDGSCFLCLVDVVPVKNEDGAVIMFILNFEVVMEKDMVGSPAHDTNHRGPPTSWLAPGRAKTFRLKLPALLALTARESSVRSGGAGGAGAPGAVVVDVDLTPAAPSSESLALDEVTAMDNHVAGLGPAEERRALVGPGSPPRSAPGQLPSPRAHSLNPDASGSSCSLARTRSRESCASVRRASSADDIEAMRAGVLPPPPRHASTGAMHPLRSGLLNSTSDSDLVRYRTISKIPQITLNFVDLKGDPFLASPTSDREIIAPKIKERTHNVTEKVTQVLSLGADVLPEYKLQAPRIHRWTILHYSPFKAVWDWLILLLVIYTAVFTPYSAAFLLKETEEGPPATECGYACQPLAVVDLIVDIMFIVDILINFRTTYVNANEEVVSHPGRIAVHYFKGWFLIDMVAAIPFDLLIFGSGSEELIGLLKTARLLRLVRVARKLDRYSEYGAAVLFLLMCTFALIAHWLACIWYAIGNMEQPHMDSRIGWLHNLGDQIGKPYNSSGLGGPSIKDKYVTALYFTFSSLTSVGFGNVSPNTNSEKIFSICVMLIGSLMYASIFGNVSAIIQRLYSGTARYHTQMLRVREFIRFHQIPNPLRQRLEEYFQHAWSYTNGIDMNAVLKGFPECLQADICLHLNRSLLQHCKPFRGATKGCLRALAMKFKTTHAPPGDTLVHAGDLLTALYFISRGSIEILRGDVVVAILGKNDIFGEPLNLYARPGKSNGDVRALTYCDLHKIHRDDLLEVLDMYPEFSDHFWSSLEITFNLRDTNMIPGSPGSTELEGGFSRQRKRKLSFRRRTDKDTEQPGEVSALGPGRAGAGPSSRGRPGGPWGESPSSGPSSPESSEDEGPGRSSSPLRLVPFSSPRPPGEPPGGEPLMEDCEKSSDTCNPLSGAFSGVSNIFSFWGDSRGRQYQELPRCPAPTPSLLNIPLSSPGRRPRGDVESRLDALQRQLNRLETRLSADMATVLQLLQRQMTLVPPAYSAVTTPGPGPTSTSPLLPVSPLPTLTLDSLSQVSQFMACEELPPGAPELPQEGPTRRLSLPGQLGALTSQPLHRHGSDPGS

Compound | MIC (Staphylococcus aureus [1]; [5]) | MIC (Streptococcus pneumoniae; [6]) | MIC (Enterococcus faecalis; [7]) | MIC (Escherichia coli; [8]) | MIC (Acinetobacter baumannii; [9]) | MIC (Pseudomonas aeruginosa; [10]) | MIC (Haemophilus influenzae; [11]) | MIC (Moraxella catarrhalis; [12]) | IC50 [2] | Ratio (Staphylococcus aureus [3]) | MIC (Enterococcus faecium; [13]) | IC50 [4] | further results
O=C1COc2cc(OC(=O)c3ccccc3)c(CNC34CCC(C[C@]5(O)Cn6c(=O)ccc7ncc(F)c5c76)(CC3)OC4)nc2N1 | 8 µg/mL (≈ 12.7 µM) | 32 µg/mL (≈ 51 µM) | 32 µg/mL (≈ 51 µM) | 32 µg/mL (≈ 51 µM) | 32 µg/mL (≈ 51 µM) | 32 µg/mL (≈ 51 µM) | 32 µg/mL (≈ 51 µM) | 32 µg/mL (≈ 51 µM) | 30.5 µM | <4 | 32 µg/mL (≈ 51 µM) |  | 
O=C1COc2cc(O)c(CNC34CCC(C[C@]5(O)Cn6c(=O)ccc7ncc(F)c5c76)(CC3)OC4)nc2N1 | 2 µg/mL (≈ 3.82 µM) | 2 µg/mL (≈ 3.82 µM) | 8 µg/mL (≈ 15.3 µM) | 16 µg/mL (≈ 30.6 µM) | 32 µg/mL (≈ 61.1 µM) | 16 µg/mL (≈ 30.6 µM) | 4 µg/mL (≈ 7.64 µM) | 1 µg/mL (≈ 1.91 µM) |  | <4 | 16 µg/mL (≈ 30.6 µM) |  | 
Nc1cc2c(nc1CNC13CCC(C[C@]4(O)Cn5c(=O)ccc6ncc(F)c4c65)(CC1)OC3)NC(=O)CO2 | 8 µg/mL (≈ 15.3 µM) | 32 µg/mL (≈ 61.2 µM) | 32 µg/mL (≈ 61.2 µM) | 32 µg/mL (≈ 61.2 µM) | 32 µg/mL (≈ 61.2 µM) | 32 µg/mL (≈ 61.2 µM) | 32 µg/mL (≈ 61.2 µM) | 4 µg/mL (≈ 7.65 µM) |  | <4 | 32 µg/mL (≈ 61.2 µM) |  | 
O=c1ccc2ncc(F)c3c2n1C[C@@]3(O)CC12CCC(NCc3ccc4c(n3)OCCN4)(CC1)CO2 | 8 µg/mL (≈ 16.2 µM) | 8 µg/mL (≈ 16.2 µM) | 32 µg/mL (≈ 64.8 µM) | 32 µg/mL (≈ 64.8 µM) | 32 µg/mL (≈ 64.8 µM) | 32 µg/mL (≈ 64.8 µM) | 32 µg/mL (≈ 64.8 µM) | 32 µg/mL (≈ 64.8 µM) |  | <4 | 32 µg/mL (≈ 64.8 µM) |  | 
CN1CCOc2ccc(CNC34CCC(C[C@]5(O)Cn6c(=O)ccc7ncc(F)c5c76)(CC3)OC4)nc21 | 4 µg/mL (≈ 7.88 µM) | 8 µg/mL (≈ 15.8 µM) | 32 µg/mL (≈ 63 µM) | 32 µg/mL (≈ 63 µM) | 32 µg/mL (≈ 63 µM) | 32 µg/mL (≈ 63 µM) |  |  | > 60 µM | <4 | 32 µg/mL (≈ 63 µM) | > 60 µM | 
O=c1ccc2ncc(F)c3c2n1C[C@@]3(O)CC12CCC(NCc3cc4c(cn3)S(=O)(=O)CCO4)(CC1)CO2 | 8 µg/mL (≈ 14.7 µM) | 32 µg/mL (≈ 59 µM) | 32 µg/mL (≈ 59 µM) | 32 µg/mL (≈ 59 µM) | 32 µg/mL (≈ 59 µM) | 32 µg/mL (≈ 59 µM) | 32 µg/mL (≈ 59 µM) | 32 µg/mL (≈ 59 µM) | > 60 µM | <4 | 32 µg/mL (≈ 59 µM) | > 60 µM | 
CCc1cc2c(nc1CNC13CCC(C[C@]4(O)Cn5c(=O)ccc6ncc(F)c4c65)(CC1)OC3)NC(=O)CO2 | 8 µg/mL (≈ 14.9 µM) | 32 µg/mL (≈ 59.7 µM) | 32 µg/mL (≈ 59.7 µM) | 16 µg/mL (≈ 29.9 µM) | 1 µg/mL (≈ 1.87 µM) | 32 µg/mL (≈ 59.7 µM) | 16 µg/mL (≈ 29.9 µM) | 1 µg/mL (≈ 1.87 µM) | > 60 µM | <4 | 32 µg/mL (≈ 59.7 µM) | > 60 µM | 
O=c1ccc2ncc(F)c3c2n1C[C@@]3(O)CC12CCC(NCc3c(Cl)cc4c(c3Cl)OCCO4)(CC1)CO2 | 4 µg/mL (≈ 7.11 µM) | 4 µg/mL (≈ 7.11 µM) | 16 µg/mL (≈ 28.4 µM) | 32 µg/mL (≈ 56.9 µM) | 32 µg/mL (≈ 56.9 µM) | 32 µg/mL (≈ 56.9 µM) | 32 µg/mL (≈ 56.9 µM) | 32 µg/mL (≈ 56.9 µM) |  |  | 32 µg/mL (≈ 56.9 µM) |  | 
O=c1ccc2ncc(F)c3c2n1C[C@@]3(O)CC12CCC(NCc3ncc4c(n3)OCCO4)(CC1)CO2 | 8 µg/mL (≈ 16.1 µM) | 4 µg/mL (≈ 8.07 µM) | 32 µg/mL (≈ 64.6 µM) | 32 µg/mL (≈ 64.6 µM) | 32 µg/mL (≈ 64.6 µM) | 32 µg/mL (≈ 64.6 µM) | 32 µg/mL (≈ 64.6 µM) | 32 µg/mL (≈ 64.6 µM) |  |  | 32 µg/mL (≈ 64.6 µM) |  | 
CC1COc2cc(CNC34CCC(C[C@]5(O)Cn6c(=O)ccc7ncc(F)c5c76)(CC3)OC4)ncc2O1 (stereo in doubt; 20) | 1 µg/mL (≈ 1.97 µM) | 2 µg/mL (≈ 3.93 µM) |  |  |  |  |  |  | > 60 µM |  |  | > 60 µM | MIC (Enterococcus faecalis): 8 µg/mL (≈ 15.7 µM); MIC (Escherichia coli): 32 µg/mL (≈ 62.9 µM); MIC (Acinetobacter baumannii): 16 µg/mL (≈ 31.5 µM); MIC (Pseudomonas aeruginosa): 32 µg/mL (≈ 62.9 µM); MIC (Haemophilus influenzae): 16 µg/mL (≈ 31.5 µM); MIC (Moraxella catarrhalis): 2 µg/mL (≈ 3.93 µM); MIC (Enterococcus faecium): 32 µg/mL (≈ 62.9 µM)
O=c1ccc2ncc(F)c3c2n1C[C@@]3(O)CC12CCC(NCc3cc4c(cn3)OCCS4)(CC1)CO2 | 0.25 µg/mL (≈ 0.49 µM) | 0.5 µg/mL (≈ 0.979 µM) | 2 µg/mL (≈ 3.92 µM) | 32 µg/mL (≈ 62.7 µM) | 4 µg/mL (≈ 7.83 µM) | 32 µg/mL (≈ 62.7 µM) | 8 µg/mL (≈ 15.7 µM) | 1 µg/mL (≈ 1.96 µM) |  |  | 8 µg/mL (≈ 15.7 µM) |  | 
O=c1ccc2ncc(F)c3c2n1C[C@@]3(O)CC12CCC(NCc3ccc4c(n3)NCCN4)(CC1)CO2 | 8 µg/mL (≈ 16.2 µM) | 16 µg/mL (≈ 32.5 µM) | 32 µg/mL (≈ 65 µM) | 32 µg/mL (≈ 65 µM) | 32 µg/mL (≈ 65 µM) | 32 µg/mL (≈ 65 µM) |  | 32 µg/mL (≈ 65 µM) | > 60 µM | <4 | 32 µg/mL (≈ 65 µM) | > 60 µM | 
O=C1COc2cnc(CNC34CCC(C[C@]5(O)Cn6c(=O)ccc7ncc(F)c5c76)(CC3)OC4)nc2N1 | 0.5 µg/mL (≈ 0.983 µM) | 2 µg/mL (≈ 3.93 µM) | 4 µg/mL (≈ 7.87 µM) | 8 µg/mL (≈ 15.7 µM) | 32 µg/mL (≈ 62.9 µM) | 16 µg/mL (≈ 31.5 µM) |  |  | 30 µM | <4 | 16 µg/mL (≈ 31.5 µM) |  | 
CC1COc2cnc(CNC34CCC(C[C@]5(O)Cn6c(=O)ccc7ncc(F)c5c76)(CC3)OC4)cc2O1 (stereo in doubt; 21) |  |  | 16 µg/mL (≈ 31.5 µM) | 32 µg/mL (≈ 62.9 µM) | 32 µg/mL (≈ 62.9 µM) | 32 µg/mL (≈ 62.9 µM) | 32 µg/mL (≈ 62.9 µM) | 32 µg/mL (≈ 62.9 µM) |  |  | 32 µg/mL (≈ 62.9 µM) |  | MIC (Staphylococcus aureus [1]): 4 µg/mL (≈ 7.87 µM); MIC (Streptococcus pneumoniae): 2 µg/mL (≈ 3.93 µM)
O=c1ccc2ncc(F)c3c2n1C[C@@]3(O)CC12CCC(NCc3ccc4c(c3Cl)OCCO4)(CC1)CO2 | 1 µg/mL (≈ 1.89 µM) | 1 µg/mL (≈ 1.89 µM) | 8 µg/mL (≈ 15.2 µM) | 32 µg/mL (≈ 60.6 µM) | 32 µg/mL (≈ 60.6 µM) | 32 µg/mL (≈ 60.6 µM) | 32 µg/mL (≈ 60.6 µM) | 32 µg/mL (≈ 60.6 µM) |  |  | 32 µg/mL (≈ 60.6 µM) |  | 
N#Cc1c(CNC23CCC(C[C@]4(O)Cn5c(=O)ccc6ncc(F)c4c65)(CC2)OC3)ncc2c1OCCO2 | 8 µg/mL (≈ 15.4 µM) | 32 µg/mL (≈ 61.6 µM) | 32 µg/mL (≈ 61.6 µM) | 32 µg/mL (≈ 61.6 µM) | 32 µg/mL (≈ 61.6 µM) | 32 µg/mL (≈ 61.6 µM) | 32 µg/mL (≈ 61.6 µM) | 32 µg/mL (≈ 61.6 µM) |  |  | 32 µg/mL (≈ 61.6 µM) |  | 
CC1COc2cc(CNC34CCC(C[C@]5(O)Cn6c(=O)ccc7ncc(F)c5c76)(CC3)OC4)ncc2O1 (stereo in doubt; 19) |  |  | 16 µg/mL (≈ 31.5 µM) | 32 µg/mL (≈ 62.9 µM) | 16 µg/mL (≈ 31.5 µM) | 32 µg/mL (≈ 62.9 µM) | 32 µg/mL (≈ 62.9 µM) | 4 µg/mL (≈ 7.87 µM) |  | <4 | 32 µg/mL (≈ 62.9 µM) |  | MIC (Staphylococcus aureus [1]): 2 µg/mL (≈ 3.93 µM); MIC (Streptococcus pneumoniae): 4 µg/mL (≈ 7.87 µM)
O=c1ccc2ncc(F)c3c2n1C[C@@]3(O)CC12CCC(NCc3cc4c(cn3)OCCS4(=O)=O)(CC1)CO2 | 8 µg/mL (≈ 14.7 µM) | 4 µg/mL (≈ 7.37 µM) | 32 µg/mL (≈ 59 µM) | 32 µg/mL (≈ 59 µM) | 32 µg/mL (≈ 59 µM) | 32 µg/mL (≈ 59 µM) | 32 µg/mL (≈ 59 µM) | 32 µg/mL (≈ 59 µM) | > 60 µM | <4 | 32 µg/mL (≈ 59 µM) | > 60 µM | 
